In PubChem BioAssay (NCI) one finds GI50 and TGI data, which are given here for 8 compounds.

Test systems include COLO 205 colon; DU-145 prostate; HOP-62 NSCLC; HT29 colon; K-562 leukemia; MDA-MB-231 breast; OVCAR-3 ovarian; OVCAR-5 ovarian; SNB-75 CNS; SR leukemia.
Experiment in all cases: growth of human tumour cells (NCI), 48 h

“And” between values parts separate entries of the source, which are not always exact repeats. Identical values can stand only once.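 96-well plates; 48 h exposure; 5 concentrations. Endpoints by linear interpolation between flanking doses. Not reached: highest tested concentration assigned. The concentration for 50% growth inhibition is given as GI50. TGI: total growth inhibition.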

For the compound `Cc1cc(S(=O)(=O)Nc2nc3cc(-c4ccsc4)sc3c(=O)n2N)c(S)cc1Cl`, the GI50 was > 100 µM in the experiment on COLO 205 colon; > 100 µM with DU-145 prostate; 50 µM in the experiment on HOP-62 NSCLC; 30.4 µM in the experiment with HT29 colon; 52 µM in the experiment on K-562 leukemia; 15.7 µM with MDA-MB-231 breast. Further, the GI50 in the experiment with OVCAR-3 ovarian, in the experiment with OVCAR-5 ovarian, in the experiment with SNB-75 CNS and in the experiment on SR leukemia was > 100 µM throughout. Also, the TGI with COLO 205 colon, in the experiment with DU-145 prostate, with HOP-62 NSCLC, in the experiment with HT29 colon, in the experiment on K-562 leukemia and in the experiment with MDA-MB-231 breast was > 100 µM in each case. The TGI in the experiment on OVCAR-3 ovarian, in the experiment on OVCAR-5 ovarian, in the experiment with SNB-75 CNS and in the experiment on SR leukemia was > 100 µM in each case.
For the compound `N#CC1CCc2c(c(-c3cn[nH]c3C(F)(F)F)nc3c(F)cc4[nH]ncc4c23)C1` (centres undefined), the GI50 is 4.23 µM with COLO 205 colon; 9.06 µM with DU-145 prostate; 6.09 µM in the experiment on HOP-62 NSCLC; 9.6 µM in the experiment on HT29 colon; 9.53 µM in the experiment on K-562 leukemia; 4.96 µM in the experiment with MDA-MB-231 breast. Also, the GI50 with OVCAR-3 ovarian was 4.89 µM; in the experiment with OVCAR-5 ovarian it was 13.7 µM; with SNB-75 CNS, 3.38 µM; with SR leukemia, 2.92 µM. The TGI in the experiment on COLO 205 colon was 16.1 µM; in the experiment on DU-145 prostate it was 80.3 µM; in the experiment with HOP-62 NSCLC, 33.7 µM; in the experiment on HT29 colon, > 100 µM; with K-562 leukemia, > 100 µM; in the experiment with MDA-MB-231 breast it was 38.1 µM. In addition, the TGI in the experiment with OVCAR-3 ovarian is 42.6 µM; with OVCAR-5 ovarian, 57.7 µM; in the experiment with SNB-75 CNS, 8.96 µM; with SR leukemia it was 59.1 µM.
Take `CC[C@H](C)[C@H](NC(=O)c1nccn1C)C(=O)N(C)[C@H](C[C@@H](OC(C)=O)c1nc(C(=O)N[C@@H](Cc2ccccc2)C[C@H](C)C(=O)OC)cs1)C(C)C`: the GI50 is 0.99 µM in the experiment on COLO 205 colon; 1.3 µM in the experiment with DU-145 prostate; 1.42 µM with HOP-62 NSCLC; 1 µM in the experiment with HT29 colon; 0.796 µM in the experiment with K-562 leukemia; 1.17 µM in the experiment with MDA-MB-231 breast. For the same compound, the GI50 in the experiment with OVCAR-3 ovarian is 0.481 µM; with OVCAR-5 ovarian, 2.23 µM; in the experiment with SNB-75 CNS it was 0.199 µM; in the experiment with SR leukemia it was 0.179 µM. Besides, the TGI in the experiment on COLO 205 colon was 4.11 µM; with DU-145 prostate it was > 33.3 µM; in the experiment with HOP-62 NSCLC, > 33.3 µM; with HT29 colon, 11.1 µM; in the experiment on K-562 leukemia, > 33.3 µM; with MDA-MB-231 breast, 22 µM. For the same compound, the TGI in the experiment on OVCAR-3 ovarian is 1.65 µM; in the experiment with OVCAR-5 ovarian, > 33.3 µM; in the experiment with SNB-75 CNS, > 33.3 µM; in the experiment on SR leukemia, > 33.3 µM.
Turning to `CC(C)(F)C[C@H](N[C@@H](c1ccc(-c2ccc(S(C)(=O)=O)cc2)cc1)C(F)(F)F)C(=O)NC1(C#N)CC1`, the GI50 was > 100 µM in the experiment on COLO 205 colon; 47.6 µM and 44.4 µM in the experiment on DU-145 prostate; 12.2 µM and 22.6 µM in the experiment on HOP-62 NSCLC; > 100 µM with HT29 colon; > 100 µM in the experiment on K-562 leukemia; 18.6 µM and 34.4 µM with MDA-MB-231 breast. For the same compound, the GI50 is > 55 µM and 19.9 µM in the experiment on OVCAR-3 ovarian; > 100 µM in the experiment on OVCAR-5 ovarian; 7.51 µM and 16.4 µM in the experiment on SNB-75 CNS; 93.1 µM in the experiment on SR leukemia. The TGI is > 100 µM in the experiment with COLO 205 colon; 55 µM and > 100 µM in the experiment with DU-145 prostate; 40.7 µM and 53.5 µM in the experiment on HOP-62 NSCLC; > 100 µM in the experiment with HT29 colon; > 100 µM with K-562 leukemia; 55 µM and > 100 µM with MDA-MB-231 breast. Also, the TGI was > 55 µM and 47.9 µM with OVCAR-3 ovarian; > 100 µM in the experiment on OVCAR-5 ovarian; 29.8 µM and 39.4 µM in the experiment on SNB-75 CNS; > 100 µM in the experiment on SR leukemia.
Consider `c1ccc(-c2cnc3nc4ccccc4nc3n2)cc1`, for which the TGI in the experiment with COLO 205 colon is 17.6 µM; in the experiment with DU-145 prostate, 19.6 µM; with HOP-62 NSCLC, 65.3 µM; in the experiment on HT29 colon it was 35.5 µM; in the experiment with K-562 leukemia, > 100 µM; in the experiment on MDA-MB-231 breast it was 17.4 µM. Also, the TGI in the experiment with OVCAR-3 ovarian amounted to 5.63 µM; with OVCAR-5 ovarian, 83.1 µM; in the experiment with SNB-75 CNS, 22.8 µM; with SR leukemia it was 4.81 µM.
Regarding `COc1ccc(S(=O)(=O)n2c3ccccc3n3ncc(-c4nnc(C)o4)c23)cc1`, the GI50 in the experiment on COLO 205 colon is 0.376 µM; with DU-145 prostate, 0.916 µM; in the experiment on HOP-62 NSCLC, 0.566 µM; with HT29 colon, 0.381 µM; in the experiment with K-562 leukemia, 0.314 µM; in the experiment with MDA-MB-231 breast, 1.86 µM. The GI50 with OVCAR-3 ovarian is 0.342 µM; in the experiment on OVCAR-5 ovarian it was 2.1 µM; with SNB-75 CNS, 0.211 µM; with SR leukemia it was 0.77 µM. For the same compound, the TGI in the experiment on COLO 205 colon was 17.1 µM; in the experiment on DU-145 prostate, > 75.3 µM; in the experiment on HOP-62 NSCLC, > 85.5 µM; in the experiment with HT29 colon, > 100 µM; in the experiment on K-562 leukemia, > 100 µM; in the experiment with MDA-MB-231 breast it was 39.6 µM. In addition, the TGI in the experiment on OVCAR-3 ovarian was 2.45 µM; with OVCAR-5 ovarian it was > 100 µM; with SNB-75 CNS, 0.937 µM; with SR leukemia, > 100 µM.
In the case of `O=C(O)c1ccc2cccnc2c1O`, the GI50 with COLO 205 colon was 4.23 µM; with DU-145 prostate it was 0.828 µM; in the experiment with HOP-62 NSCLC it was 1.37 µM; in the experiment on HT29 colon it was 2.43 µM; in the experiment with K-562 leukemia, 0.896 µM; in the experiment on OVCAR-3 ovarian, 1.68 µM. In addition, the values for the GI50 in the experiment with OVCAR-5 ovarian, in the experiment with SNB-75 CNS and with SR leukemia were 2.14 µM, 1.51 µM and 2.23 µM, respectively. Besides, the TGI is 10.1 µM with COLO 205 colon; 42.3 µM in the experiment with DU-145 prostate; 41.6 µM with HOP-62 NSCLC; > 79 µM with HT29 colon; > 100 µM in the experiment with K-562 leukemia; > 100 µM in the experiment with MDA-MB-231 breast. Besides, the TGI in the experiment on OVCAR-3 ovarian was 5.22 µM; in the experiment on OVCAR-5 ovarian, > 100 µM; in the experiment with SNB-75 CNS, > 100 µM; in the experiment on SR leukemia it was > 100 µM.
As for `O[C@H](CN1CC1)[C@@H](O)CN1CC1`, the GI50 is 12.4 µM in the experiment on COLO 205 colon; 3.25 µM with DU-145 prostate; 3.41 µM in the experiment with HOP-62 NSCLC; 10.2 µM in the experiment on HT29 colon; 6.84 µM with K-562 leukemia; 24 µM in the experiment on MDA-MB-231 breast. For the same compound, the GI50 with OVCAR-3 ovarian was 13.3 µM; in the experiment on OVCAR-5 ovarian, 11.2 µM; in the experiment on SNB-75 CNS it was 2.94 µM; in the experiment on SR leukemia it was 0.452 µM. For the same compound, the TGI with COLO 205 colon is 25.5 µM; with DU-145 prostate, 26.8 µM; in the experiment with HOP-62 NSCLC, 47.2 µM; in the experiment with HT29 colon it was 26.6 µM; with K-562 leukemia it was > 100 µM; with MDA-MB-231 breast it was 71.6 µM. Further, the TGI with OVCAR-3 ovarian was 35.2 µM; in the experiment with OVCAR-5 ovarian, 48 µM; with SNB-75 CNS it was 21.4 µM; in the experiment on SR leukemia it was > 100 µM.
